Read-outs that look alike come from different tables or passages of the source. Marks after values point to notes of the source that are not given here.

Data set [1] is described as follows: Metabolic stability in human liver microsomes. Type of data set: in vitro ADME. As for the experimental part: (§1) In vitro Metabolism Studies
(§2) Metabolic stability studies were carried out exposing nominated compounds to samples of liver microsomes. Compounds were analysed by LC-MS for loss of compound at 0, 5, 15, 30 and 45 minute time points. The rate of metabolic degradation of compounds was used to calculate CLint, SE CLint, t1/2 (summarised in supplemental table 2.)
(§3) Supplemental Table 4. In vitro metabolic stability of compounds DL-45/DL-Moses and 39 Compound Metbolic Stability (Human) Metbolic Stability (Mouse) […]
(Microsomes from liver hold many membrane-bound enzymes, among them those of drug oxidation.)

For data set [2], the target named is T1, GCN5L2 (Homo sapiens, UniProt Q92830).
T1 construct: made in house
T1 sequence (Q92830 728-832 limits assumed): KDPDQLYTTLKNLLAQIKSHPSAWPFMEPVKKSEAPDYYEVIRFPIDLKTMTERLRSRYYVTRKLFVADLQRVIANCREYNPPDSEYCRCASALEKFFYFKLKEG
Kind of data set: Differential scanning fluorimetry (DSF), GCN5 (GCN5L2) Brd. Type of data set: binding. As to conditions: compound 10 μM. As for the experimental part: (§4) Protein Expression and Purification
(§5) Human bromodomains were cloned, expressed and purified as previously described.[1]
(§6) Differential Scanning Fluorimetry (DSF)
(§7) Thermal melting points were recorded using an Mx3005p Real Time PCR Machine (Stratagene).
(§8) Subject proteins were buffered in 10 mM HEPES at pH 7.5, 500 mM NaCl and assayed in a 96-well […]
(§9) plate at a final concentration of 2 μM in 20 μL volume. Compounds were then added to a final […]
(§10) concentration of 10 μM. SPYRO Orange (Molecular Probes) was used as a fluorescent probe at a […]
(§11) dilution of 1:1000. Excitation and emission filters for the SPYRO-Orange dye were set to 465 nm and […]
(§12) 590 nm, respectively. The temperature was raised with a step of 3 °C/min from 25 °C to 96 °C and […]
(§13) fluorescence readings were taken at each interval. Data was analysed as previously described.[2]
(§14) Bromodomain affinity selectivity panel of (S)-11
(§15) Supplemental Figure 1. DSF Selectivity panel of (S)-11 against 48 human Bromodomains. […]
(§16) ┼Mean ΔTm ± SEM (number of measurements= 2). Compound concentration: 10 μM […]
(§17) (1 picture or pasted object on this page, not shown here)
(In general: In DSF a fluorescence change marks the thermal transition of the protein.)

The target of data set [3] is T2, PCAF Brd (Homo sapiens, UniProt Q92831).
T2 construct: Human bromodomains were cloned, expressed and purified as previously described; made in house
T2 sequence (Q92831 723-827 limits assumed): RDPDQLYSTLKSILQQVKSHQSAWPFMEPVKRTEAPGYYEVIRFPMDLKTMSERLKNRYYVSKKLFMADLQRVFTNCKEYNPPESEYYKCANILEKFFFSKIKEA
Kind of data set: Isothermal titration calorimetry (ITC), PCAF Brd. Type of data set: binding. As for the experimental part: (§18) Isothermal Titration Calorimetry (ITC)
(§19) Experiments were carried out on a Nano-ITC Standard Volume Instrument (TA Instruments). All experiments were carried out at 25 °C in 20 mM HEPES pH 7.5, 150 mM NaCl, 0.5 mM TCEP and 5% glycerol. Protein solutions were buffer exchanged by gel filtration. The titrations were conducted using an initial injection of 2 μL followed by 32 injections of 8 μL. Background dilution heat was substracted from each experiment. Thermodynamic parameters were calculated using ΔG = ΔH-T ΔS = -RTlnKB , where KD = 1/KB. ΔG, ΔH and ΔS are changes in free energy, enathalpy and entropy resepectively. Independent single site binding models were employed in data analysis.
(§20) Supplemental Figure 3. ITC trace of D-Moses and PCAF Brd […]
A general note: Isothermal titration calorimetry measures the heat released or taken up as one component is titrated into another.

Data set [4] deals with MDCK‐MDR1 cells. In words: Permeability in MDCK-MDR1 cells. Type of data set: in vitro ADME.
A short description of data set [5]: Kinetic solubility. The class given is physicochemical. As to conditions: kinetic from dmso stock.
Data set [6] is described as follows: Metabolic stability in mouse liver microsomes. The class given is in vitro ADME. As for the experimental part: as §1, §2, §3
In data set [7] the target is T2, PCAF Brd. Kind of data set: Differential scanning fluorimetry (DSF), PCAF Brd. The class given is binding. As to conditions: compound concentration 10 μM. As for the experimental part: as §4, §5, §6, §7, §8, §9, §10, §11, §12, §13, §14, §15, §16, §17
Data set [8] deals with HIV‐1. As to conditions: read-out: HIV-1 EC50; cited from earlier work.
Data set [9] relates to PCAF Brd. Conditions: cited from earlier work.
In data set [10] the test system is PCAF. Also on record: method as in earlier work. As to conditions: read-out: PCAF AlphaLISA IC50; cited from earlier work.
For data set [11], the target named is T2, PCAF Brd. In words: Differential scanning fluorimetry (DSF), PCAF Brd. Type of data set: binding. As to conditions: compound concentration 100 μM.
In data set [12] the target is T3, PCAF‐Brd histone H3.3 interaction (Homo sapiens, UniProt Q92831).
T3 construct: NanoLuciferase fusion of the isolated bromodomain of PCAF; expressed in transfected cells; host or cells: HEK293
T3 sequence (Q92831 723-827 limits assumed): T2 sequence (Q92831 723-827 limits assumed)
Kind of data set: nanoBRET target engagement assay, PCAF-Brd / histone H3.3 in HEK293 cells. Type of data set: cell-based. Conditions: live HEK293 cells; compounds 5 μM, 18 h. As for the experimental part: page 48: NanoLuciferase Bioluminescent Resonance Energy Transfer (NanoBRET) Assay Methods HEK293 cell (8 x 105) were plated in each well of a 6-well plate and co-transfected with Histone H3.3- HaloTag (NM_002107) and a NanoLuciferase fusion of the isolated bromodomain of PCAF. Twenty hours post-transfection, cells were collected, washed with PBS, and exchanged into media containing phenol red-free DMEM and 4% FBS in the absence (control sample) or the presence (experimental sample) of 100 nM NanoBRET 618 fluorescent ligand (Promega). Cell density was adjusted to 2 x 10^5 cells/ml and then re-plated in a 96-well assay white plate (Corning Costar #3917). […] Readings were performed within 5 minutes using a Glo-MAX Discover instrument (Promega) equipped with 450/8 nm bandpass and 600 nm longpass filters with a 0.3 sec reading setting. A corrected BRET ratio was calculated and is defined as the ratio of the emission at 600 nm/450 nm for experimental samples (i.e. those treated with NanoBRET fluorescent ligand) subtracted by and the emission at 600 nm/450 nm for control samples (not treated with NanoBRET fluorescent ligand). BRET ratios are expressed as milliBRET units (mBU), where 1 mBU corresponds to the corrected BRET ratio multiplied by 1000. […] Compounds were analysed by LC-MS for loss of compound at 0, 5, 15, 30 and 45 minute time points. […]

The target in data set [13] is T4, HGCN5 Brd (Homo sapiens, UniProt Q92830).
T4 construct: made in house
T4 sequence (Q92830 728-832 limits assumed): T1 sequence (Q92830 728-832 limits assumed)
In words: Isothermal titration calorimetry (ITC), human GCN5 Brd. Type of data set: binding. As for the experimental part: as §18, §19
Supplemental Figure 2. ITC trace of L-Moses and PCAF Brd
as §20

For data set [14], the system named is peripheral blood mononuclear cells (PBMC). In words: Cytotoxicity in peripheral blood mononuclear cells (PBMC). The class given is cell-based. Conditions: 10 μM for 24 hours. As for the experimental part:
(§21) obtained from 5 healthy donors. PBMC were cultured either with D-Moses or L-Moses at concentrations of 0.1, 1 and 10 μM or with a control (DMSO) for 24 hours. Viability of PBMC were then checked using LIVE/DEAD Fixable Aqua Dead Cell Stain Kit (ThermoFisher Scientific).
(§22) High Throughput Time Resolved Fluorescence Assay (HTRF)
(§23) HTRF assay was carried out using a Cisbio Epigenous kit B (62BDBPEH) using the standard assay protocol with GST-PCAFBRD.[3] Final assay concentrations: GST-PCAFBRD (20 nM), SA-XL665 (62.5 nM), α-GST donor (62.5 nM), compound 46 (500 nM). Ki was calculated using the Cheng-Prussof equation […]
(§24) Recombinant PfGCN5 (bromodomain only) was expressed in E. coli and purified using a previously described system. The protein crystallized with the compound L-45 at 293 K in 0.1M CaCl2, 30% PEG 8k, 0.2 M NH4SO4. The concentrations of the protein sample and the compound were 10 mg/ml […]
(§25) X-ray diffraction data for the crystal was collected at 100 K at the beamline 08ID-1 of the Canadian Macromolecular Crystallography Facility. The dataset was processed using the HKL-2000 suite, and the structure solved using Phaser, a component of the CCP4 suite with molecular replacement model 4QNS. […]

A short description of data set [15]: Permeability in MDCK-MDR1 cells. The class given is in vitro ADME. Conditions: dog, direction not given.
For data set [16], the target named is T5, GST-PCAFBRD (Homo sapiens, UniProt Q92831).
T5 construct: Final assay concentrations: GST-PCAFBRD (20 nM)
T5 sequence (Q92831 723-827 limits assumed): T2 sequence (Q92831 723-827 limits assumed)
In words: HTRF assay, displacement of biotinylated compound 46 from GST-PCAF Brd. Type of data set: binding. As for the experimental part: as §21, §22, §23, §24, §25

[17] abbreviates: Table 2, read-out: K D (nM) (ITC) PCAF Brd.

`Cc1nnc2c3ccccc3c(N[C@@H](C)[C@H](c3ccccc3)N(C)C)nn12` (relative stereo) [Compound 45]: in data set [1] (human liver microsomes, n 5, read-out: CLint (μL/min/mg protein) human), the microsomal CLint stood at 35 µL/min/mg. Besides, the ΔTm at 10 µM in data set [2] (read-out: GCN5L2 ΔTm (°C) (DSF)) came out at 5 °C. The Kd in [3] (setting [17]) was found to be 168 ± 27 nM. For the same molecule, in data set [4], the “efflux in MDCK‐MDR1 cells” value is on record as “low efflux” and the “permeability in MDCK‐MDR1 cells” value was “good”. The molecule further displayed a kinetic solubility in [5] greater than 200 µM. Also, the microsomal CLint in data set [6] (mouse liver microsomes, n 5, read-out: CLint (μL/min/mg protein) mouse) was 37 µL/min/mg. In data set [7], the “ΔT m [°C] PCAF (DSF)” value is 7.9 °C.

As to `NCCCNCc1ccc(NCCCN)[n+]([O-])c1` [Compound 2], in data set [8], the EC50 was 11500 nM. The IC50 in [9] is 930 nM.

As for `CC(C)C[C@H]1C[C@@H](Nc2cnn(C)c(=O)c2Cl)CN(C)C1` [Compound 3], the IC50 in [10] was 13 nM.

On to `Cc1nnc2c3ccccc3c(NCCN(C)C)nn12` [Compound 7], for which the Kd in data set [3] (Supplemental Table 3, compound concentration 30 μM, protein concentration 280-320 μM, read-out: PCAF KD (μM) (ITC)) is 7980 nM; in [3] (Table 1, read-out: K D [μM] (ITC) PCAF Brd) it was 8000 ± 650 nM. For the same molecule, the “ΔT m [°C] PCAF (DSF)” value in [11] was 8.5^[b] °C.

Consider `Cc1nnc2c3ccccc3c(N[C@@H](C)[C@H](c3ccccc3)N(C)C)nn12` [L‐45], for which the half-life in data set [1] (human, liver microsomes, read-out: t1/2 human liver microsomes) stood at 40 min; in data set [6] (mouse, liver microsomes, read-out: t1/2 mouse liver microsomes) it was 38 min. For the same molecule, in data set [12], the “displacement of PCAF‐Brd from H3.3 in nanoBRET assay” value is “single digit μM concentration”. In addition, the “GCN5L2 ΔTm (°C) (DSF)” value in data set [2] (10 µM) is “+3.6 °C”. The Kd in data set [3] (setting [17]) amounted to 126 ± 15 nM; in data set [13], 550 nM. Further, the “cytotoxicity in PBMC” value in data set [14] is “no observable cytotoxicity”. Moreover, the Papp in data set [15] (MDCK-MDR1, first of 59/70, read-out: MDCK-MDR1 permeability, first value of the pair) came out at 59 ×10⁻⁶ cm/s; in [15] (MDCK-MDR1, second of 59/70, read-out: MDCK-MDR1 permeability, second value of the pair), 70 ×10⁻⁶ cm/s. In addition, the affinity in data set [16] corresponds to a Ki of 47 nM.

Broadly, the ΔTm is the shift of the melting midpoint relative to a reference. A word on the solubility (kinetic): it is solubility judged after dilution from a stock solution rather than from solid. As usually defined, the EC50 is the concentration that produces a half-maximal response. As a reminder, the IC50 is the concentration that gives 50% inhibition. As usually defined, the Ki is the equilibrium dissociation constant of an inhibitor or competing ligand from its target. Low values mean tighter binding, high ones weaker binding.

The values are drawn from PMC5412877, “Discovery of a PCAF Bromodomain Chemical Probe” (Angewandte Chemie (International Ed. in English), 2016).
